Assay results reported in US4740233A, “Substituted 1,2,4-triazolo[1,5-a]-pyrimidine-2-sulfonamides and compositions and methods of controlling undesired vegetation and suppressing the nitrification of ammonium nitrogen in soil” (The Dow Chemical Company, priority 1986, dated 1988).

Columns and labels:
[1] = test system: nitrification of ammonium nitrogen; test: Suppression of nitrification of ammonium nitrogen in soil; conditions: 27° C.
Procedure, shortened: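 Value is % NH4-N remaining after a two-week, 27° C incubation of treated soil held at 1/3 bar tension moisture. Nitrate was measured with an ion-selective electrode after extraction with ammonium sulfate solution and 10 min shaking.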

[2] = test system: annual sugar beet variety (SLC03); test: Plant growth regulator activity, postemergence; assay type: in vivo; conditions: Beta vulgaris, post-emergence, 672 h, 4 weeks after spraying; read-out: Bolting Inhibition (postemergence), concentration with observed effect
From the text: (§1) Using a regular biennial variety, even a bolting-susceptible variety would require a cold treatment of around 10-16 weeks plus a hormone treatement in conjunction with specific light intensities. Thus, for a screening organism, we selected one which would consistently produce bolting on a regular schedule. The screen is run with an annual sugar beet variety (SLC03) provided by Dr. Richard J. Hecker, Fort Collins, Colo. This variety is an inbred which bolts in the 6- to 8-leaf stage without any need for vernalization. This allows the screen to be run entirely in the greenhouse with all 110 chemical compounds tested on one tray. The sugarbeets are grown in 3×3 inch square pots in a greenhouse sandy loam potting mix. The sugarbeets are sprayed with test compounds when they are 2 to 3 weeks old (2 true leaves). The compounds are dissolved in acetone and diluted with water containing Tween 20 as a wetting agent. The concentration of acetone in the final spray is 20% and the concentration of Tween 20 is 0.05 percent. The plants are examined for the appearance of a bolt 4 weeks after spraying.

jimsonweed [3] = test: Preemergent control of plant species; assay type: in vivo, Datura stramonium; conditions: Datura stramonium, pre-emergence, 336 h; 0.25 lb/acre; read-out: percent preemergent control
Procedure, shortened: (§2)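 Test compositions were applied evenly to the surface of freshly seeded soil beds and kept under greenhouse conditions for two weeks. Percent control reflects growth reduction compared with water-treated beds of the same species.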

wild oats [4] = test: Preemergent control of plant species; assay type: in vivo; conditions: Avena fatua, pre-emergence, 336 h; 0.25 lb/acre; read-out: percent preemergent control
Procedure, shortened: as §2

corn [5] = test: Preemergent control of plant species; assay type: in vivo, Zea mays; conditions: Zea mays, pre-emergence, 336 h; 0.25 lb/acre; read-out: percent preemergent control
Procedure, shortened: as §2

cotton [6] = test: Preemergent control of plant species; assay type: in vivo, Gossypium spp.; conditions: Gossypium hirsutum, pre-emergence, 336 h; 0.25 lb/acre; read-out: percent preemergent control
Procedure, shortened: as §2

soybean [7] = test: Preemergent control of plant species; assay type: in vivo, Glycine max.; conditions: Glycine max, pre-emergence, 336 h; 0.25 lb/acre; read-out: percent preemergent control
Procedure, shortened: as §2

annual morning glory [8] = test: Preemergent control of plant species; assay type: in vivo, Ipomoea spp.; conditions: Ipomoea, pre-emergence, 336 h; 0.25 lb/acre; read-out: percent preemergent control
Procedure, shortened: as §2

rape [9] = test: Preemergent control of plant species; assay type: in vivo, Brassica napus; conditions: Brassica napus, pre-emergence, 336 h; 0.25 lb/acre; read-out: percent preemergent control
Procedure, shortened: as §2

sugar beet [10] = test: Preemergent control of plant species; assay type: in vivo, Beta saccharifera; conditions: Beta vulgaris, pre-emergence, 336 h; 0.25 lb/acre; read-out: percent preemergent control
Procedure, shortened: as §2

barnyardgrass [11] = test: Preemergent control of plant species; assay type: in vivo, Echinochloa crusgalli; conditions: Echinochloa crus-galli, pre-emergence, 336 h; 0.25 lb/acre; read-out: percent preemergent control
Procedure, shortened: as §2

rice [12] = test: Preemergent control of plant species; assay type: in vivo, Oryza sativa; conditions: Oryza sativa, pre-emergence, 336 h; 0.25 lb/acre; read-out: percent preemergent control
Procedure, shortened: as §2

yellow nutsedge [13] = test: Preemergent control of plant species; assay type: in vivo, Cyperus esculentus; conditions: Cyperus, pre-emergence, 336 h; 0.25 lb/acre; read-out: percent preemergent control
Procedure, shortened: as §2

wheat [14] = test: Preemergent control of plant species; assay type: in vivo, Triticum aestivum; conditions: Triticum aestivum, pre-emergence, 336 h; 0.25 lb/acre; read-out: percent preemergent control
Procedure, shortened: as §2

yellow foxtail [15] = test: Preemergent control of plant species; assay type: in vivo, Setaria lutescens; conditions: Setaria, pre-emergence, 336 h; 0.25 lb/acre; read-out: percent preemergent control
Procedure, shortened: as §2

johnson grass [16] = test: Preemergent control of plant species; assay type: in vivo, Sorghum halepense; conditions: Sorghum halepense, pre-emergence, 336 h; 0.25 lb/acre; read-out: percent preemergent control
Procedure, shortened: as §2

velvetleaf [17] = test: Preemergent control of plant species; assay type: in vivo, Abutilon theophrasti; conditions: Abutilon theophrasti, pre-emergence, 336 h; 0.25 lb/acre; read-out: percent preemergent control
Procedure, shortened: as §2

cocklebur = test: Postemergent control of plant species; assay type: in vivo, Xanthium spp.; conditions: Xanthium strumarium, post-emergence, 336 h, read-out: percent postemergent control
Procedure, shortened: (§3)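 Spray emulsion: acetone stock at twice final concentration plus equal volume water with 0.1% wetting agent, applied to separated greenhouse beds at 2-4 leaf stage. Assessed at ~two weeks; score reflects growth reduction compared with untreated plants.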

wheat [18] = test: Postemergent control of plant species; assay type: in vivo, Triticum aestivum; conditions: Triticum aestivum, post-emergence, 336 h, read-out: percent postemergent control
Procedure, shortened: as §3

rape [19] = test: Postemergent control of plant species; assay type: in vivo, Brassica napus; conditions: Brassica napus, post-emergence, 336 h, read-out: percent postemergent control
Procedure, shortened: as §3

yellow foxtail [20] = test: Postemergent control of plant species; assay type: in vivo, Setaria lutescens; conditions: Setaria, post-emergence, 336 h, read-out: percent postemergent control
Procedure, shortened: as §3

[21] = test system: annual sugar beet variety (SLC03); test: Plant growth regulator activity, preemergence; assay type: in vivo; conditions: Beta vulgaris, pre-emergence; 6-7 weeks; read-out: Bolting Inhibition (preemergence), concentration with observed effect
From the text: as §1
Preemergence tests are conducted by spraying formulated chemical on seeds placed on potting soil. The sprayed seeds are then covered with 1/4 inch of potting soil and the pots are watered. Bolting is evaluated 6-7 weeks after the initiation of the test. At this time untreated plants have a vigorous bolting stem with visible flowers.

sugar beet [22] = test: Postemergent control of plant species; assay type: in vivo, Beta saccharifera; conditions: Beta vulgaris, post-emergence, 336 h, read-out: percent postemergent control
Procedure, shortened: as §3

crabgrass = test: Postemergent control of plant species; assay type: in vivo, Digitaria spp.; conditions: Digitaria sanguinalis, post-emergence, 336 h, read-out: percent postemergent control
Procedure, shortened: as §3

velvetleaf [23] = test: Postemergent control of plant species; assay type: in vivo, Abutilon theophrasti; conditions: Abutilon theophrasti, post-emergence, 336 h, read-out: percent postemergent control
Procedure, shortened: as §3

pigweed = test: Postemergent control of plant species; assay type: in vivo, Amaranthus spp.; conditions: Amaranthus retroflexus, post-emergence, 336 h, read-out: percent postemergent control
Procedure, shortened: as §3

jimsonweed [24] = test: Postemergent control of plant species; assay type: in vivo, Datura stramonium; conditions: Datura stramonium, post-emergence, 336 h, read-out: percent postemergent control
Procedure, shortened: as §3

soybean [25] = test: Postemergent control of plant species; assay type: in vivo, Glycine max.; conditions: Glycine max, post-emergence, 336 h, read-out: percent postemergent control
Procedure, shortened: as §3

corn [26] = test: Postemergent control of plant species; assay type: in vivo, Zea mays; conditions: Zea mays, post-emergence, 336 h, read-out: percent postemergent control
Procedure, shortened: as §3

barnyardgrass [27] = test: Postemergent control of plant species; assay type: in vivo, Echinochloa crusgalli; conditions: Echinochloa crus-galli, post-emergence, 336 h, read-out: percent postemergent control
Procedure, shortened: as §3

yellow nutsedge [28] = test: Postemergent control of plant species; assay type: in vivo, Cyperus esculentus; conditions: Cyperus, post-emergence, 336 h, read-out: percent postemergent control
Procedure, shortened: as §3

wild oats [29] = test: Postemergent control of plant species; assay type: in vivo, Avena fatua; conditions: Avena fatua, post-emergence, 336 h, read-out: percent postemergent control
Procedure, shortened: as §3

johnson grass [30] = test: Postemergent control of plant species; assay type: in vivo, Sorghum halepense; conditions: Sorghum halepense, post-emergence, 336 h, read-out: percent postemergent control
Procedure, shortened: as §3

rice [31] = test: Postemergent control of plant species; assay type: in vivo, Oryza sativa; conditions: Oryza sativa, post-emergence, 336 h, read-out: percent postemergent control
Procedure, shortened: as §3

annual morning glory [32] = test: Postemergent control of plant species; assay type: in vivo, Ipomoea spp.; conditions: Ipomoea, post-emergence, 336 h, read-out: percent postemergent control
Procedure, shortened: as §3

cotton [33] = test: Postemergent control of plant species; assay type: in vivo, Gossypium spp.; conditions: Gossypium hirsutum, post-emergence, 336 h, read-out: percent postemergent control
Procedure, shortened: as §3

sorghum = test: Postemergent control of plant species; assay type: in vivo, Sorghum vulgare; conditions: Sorghum, post-emergence, 336 h, read-out: percent postemergent control
Procedure, shortened: as §3

## Cc1cc(C)n2nc(S(=O)(=O)Nc3c(Cl)cccc3-c3ccccc3)nc2n1 [Compound 63]
[1]; 0.06 ppm
  % NH4-N Remaining After 2 Weeks Incubation: 6%
[1]; 0.25 ppm
  % NH4-N Remaining After 2 Weeks Incubation: 6%
[1]; 1 ppm
  % NH4-N Remaining After 2 Weeks Incubation: 36%
[1]; 4 ppm
  % NH4-N Remaining After 2 Weeks Incubation: 61%
[2]
  minimal effective concentration: 5 µg/mL

## Cc1cc(C)n2nc(S(=O)(=O)Nc3c(C)ccc(Cl)c3C)nc2n1 [Compound 65]
Jimsonweed [3]
  pest or weed control at 280.212 g/ha: 90%
Wild oats [4]
  pest or weed control at 280.212 g/ha: 0%
Corn [5]
  plant injury at 280.212 g/ha: 0%
Cotton [6]
  plant injury at 280.212 g/ha: 0%
Soybean [7]
  plant injury at 280.212 g/ha: 100%
Annual morning glory [8]
  pest or weed control at 280.212 g/ha: 50%
Rape [9]
  plant injury at 280.212 g/ha: 20%
[1]; 0.06 ppm
  % NH4-N Remaining After 2 Weeks Incubation: 5%
[1]; 0.25 ppm
  % NH4-N Remaining After 2 Weeks Incubation: 52%
[1]; 1 ppm
  % NH4-N Remaining After 2 Weeks Incubation: 65%
[1]; 4 ppm
  % NH4-N Remaining After 2 Weeks Incubation: 85%
Sugar beet [10]
  plant injury at 280.212 g/ha: 100%
[2]
  minimal effective concentration: 12 µg/mL
Barnyardgrass [11]
  pest or weed control at 280.212 g/ha: 70%
Rice [12]
  plant injury at 280.212 g/ha: 30%
Yellow nutsedge [13]
  pest or weed control at 280.212 g/ha: 95%
Wheat [14]
  plant injury at 280.212 g/ha: 0%
Yellow foxtail [15]
  pest or weed control at 280.212 g/ha: 95%
Johnson grass [16]
  pest or weed control at 280.212 g/ha: 95%
Velvetleaf [17]
  pest or weed control at 280.212 g/ha: 20%

## COc1cccc(C=NO)c1NS(=O)(=O)c1nc2nc(C)cc(C)n2n1 [Compound 71]
cocklebur
  pest or weed control at 500 ppm: 0%
Wheat [18]
  plant injury at 500 ppm: 0%
Rape [19]
  plant injury at 500 ppm: 70%
Yellow foxtail [20]
  pest or weed control at 500 ppm: 0%
[21]
  minimal effective concentration: 400 µg/mL
Sugar beet [22]
  plant injury at 500 ppm: 70%
crabgrass
  pest or weed control at 500 ppm: 20%
Velvetleaf [23]
  pest or weed control at 500 ppm: 70%
[1]; 0.06 ppm
  % NH4-N Remaining After 2 Weeks Incubation: 35%
[1]; 0.25 ppm
  % NH4-N Remaining After 2 Weeks Incubation: 49%
[1]; 1 ppm
  % NH4-N Remaining After 2 Weeks Incubation: 84%
[1]; 4 ppm
  % NH4-N Remaining After 2 Weeks Incubation: 90%
pigweed
  pest or weed control at 500 ppm: 0%
Jimsonweed [24]
  pest or weed control at 500 ppm: 60%
Soybean [25]
  plant injury at 500 ppm: 35%
Corn [26]
  plant injury at 500 ppm: 0%
Barnyardgrass [27]
  pest or weed control at 500 ppm: 0%
Yellow nutsedge [28]
  pest or weed control at 500 ppm: 0%
Wild oats [29]
  pest or weed control at 500 ppm: 0%
Johnson grass [30]
  pest or weed control at 500 ppm: 0%
Rice [31]
  plant injury at 500 ppm: 0%
Annual morning glory [32]
  pest or weed control at 500 ppm: 0%
Cotton [33]
  plant injury at 500 ppm: 75%
sorghum
  plant injury at 500 ppm: 0%
